# Laboratory results: patent publication US12552788B2 (priority 2020, dated 2026)
# Tested on: IFN β-production
# Conditions: soluble, unformulated form
# Method: (FIG. 3A) Bioluminescence images of luciferase reporter mice (IFβ+/Δβ-luc); images taken 4, 24 and 48 h post footpad injection of IMDQ-PEG-CHOL, IMDQ-PEG and native IMDQ.
# In vivo immune activation imaging. Luciferase reporter mice (IFNβ+/Δβ-luc) with a BALB/c background, aged 7-9 weeks, were housed in individual ventilated cages and given ad libitum access to food and water. 20 mL of IMDQ-PEG-CHOL, IMDQ-PEG or IMDQ were injected subcutaneously in the footpad (n=3) at an equivalent INDQ dose of 2 mg. For in vivo imaging at the given time points, mice were injected subcutaneously with 200 μL D-luciferin and in vivo luminescence imaging was recorded 12 min later using the IVIS Lumina II imaging system. Local (DLN and DLN+foot pad) luminescence and full-body luminescence were quantified using the Living Image 4.4 software.
smiles,measurement,value
"CCCCc1nc2c(N)nc3ccccc3c2n1Cc1ccc(CN)cc1 [IMDQ, 1-(4-(aminomethyl)benzyl)-2-butyl-1H-imidazo[4,5-c]quinolin-4-amine]",entry into systemic circulation upon local administration,rapidly enters systemic circulation
